The source of these data is EP4692096A1, “MACROCYCLIC COMPOUND, AND PHARMACEUTICAL COMPOSITION AND USE THEREOF” (Prime Gene Therapeutics Co., Ltd., priority 2023, dated 2024).

Like-named read-outs stand apart in the source and are kept apart here. Where only a bound is given, the exact number is not on record here.

Data set [1] can be described thus: Blood-brain penetration test in rats. Type of data set: in vivo, Male SD rats. The following applies: for Kp at 0.5 h / concentration at 0.5 h / Kp at 5 min: male, SD, rat; for Kp at 0.5 h / Kp at 5 min: brain/plasma; for concentration at 0.5 h: 0.5 h after oral administration (PO, 10 mg/kg); for Kp at 5 min: IV 2 mg/kg, 5 min after administration. The procedure: Male SD rats were divided into groups of three animals each, which were administered the compounds to be tested either by single oral gavage (PO, 10 mg/kg) or by single intravenous injection (IV, 2 mg/kg). Animals were fasted overnight prior to dosing, beginning 10 hours before administration and continuing until 4 hours after dosing. Rats were sacrificed at 0.5 hours after PO administration (or 5 min after IV administration). Blood and brain tissues were collected. The samples were centrifuged at 4000 rpm for 5 min at 4 °C, and plasma was transferred to centrifuge tubes and stored at -80°C until analysis. Plasma samples were processed by protein precipitation extraction, and the extracts were analyzed by LC/MS/MS.

The next data set has as its target T1, TYK2-JH2 (Homo sapiens, UniProt P29597).
T1 construct: Enzymatic activity(IC50) assay of compounds against TYK2-JH2 and JAK1-JH2
As to the kind of experiment: Enzymatic activity (IC50) assay against TYK2-JH2 (fluorescence polarisation, JH2 probe 1). Type of data set: binding. The procedure: (§1) Using an Echo liquid handler, 50 nL of the compound to be tested was transferred into a 384-well reaction plate, in duplicate wells for each compound. The plate was subjected to centrifugation at 1000 rpm for 1 min and the final DMSO concentration was 0.5%. Subsequently, 5 µL of TYK2 (or JAK1) was added to the plate, centrifuged at 1000 rpm for 1 min, and incubated at 25 °C for 10 min. Then, 5 µL of JH2 probe 1 was added to the plate, centrifuged at 1000 rpm for 1 min, and incubation at 25 °C for 60 min. FP 520/48 signals were measured using a BMG high-throughput multifunctional plate reader. Data from the TYK2-JH2 assay were analyzed using GraphPad Prism 8 software. […] After calculating inhibition rates, IC50 values (half-maximal inhibitory concentrations) of the control compounds and the compounds to be tested were determined using nonlinear regression fitting of software. [formula] • Datapositive control: mean value of positive control wells • Datanegative control: mean value of negative control wells

A further data set concerns the target T2, JAK1-JH2 (Homo sapiens, UniProt P23458).
T2 construct: Enzymatic activity(IC50) assay of compounds against TYK2-JH2 and JAK1-JH2
As to the kind of experiment: Enzymatic activity (IC50) assay against JAK1-JH2 (fluorescence polarisation, JH2 probe 1). Type of data set: binding. The protocol: as §1

The nature of data set [2]: Pharmacokinetic experiment in rats. Type of data set: in vivo, Male SD rats. The note with it: for Vd: plasma, iv, 2 mg/kg. The procedure:
Male SD rats were divided into groups of three animals each, which were administered the compound of Example 2 by intravenous injection (2 mg/kg), administered the compound of Example 2 by single oral gavage (10 mg/kg), and administered a control compound by single oral gavage (10 mg/kg), respectively. Animals were fasted overnight prior to dosing, beginning 10 hours before administration and continuing until 4 hours after dosing. For the intravenous group, blood samples were collected at 0.0833, 0.25, 0.5, 1, 2, 4, 6, 8, and 24 h post-dose. For the oral administration groups, blood samples were collected at 0.25, 0.5, 1, 2, 4, 6, 8, and 24 h post-dose. Blood samples (0.3 mL) were collected from the retro-orbital venous plexus under isoflurane anesthesia into heparinized tubes. The samples were centrifuged at 4000 rpm for 5 min at 4 °C, and plasma was transferred to centrifuge tubes and stored at -80°C until analysis. Plasma samples were processed by protein precipitation extraction, and the extracts were analyzed by LC/MS/MS. Pharmacokinetic results are shown in Tables 2 and 3: Table 2: Pharmacokinetic parameters of the compound in Example 2 in rat plasma after intravenous administration

Where [3] appears, read: male, SD, rat plasma, intravenous injection 2 mg/kg.
Setting [4] is: male, SD, rat plasma, single oral gavage 10 mg/kg.
[5] abbreviates: read-out: brain/blood concentration ratio.

T1 sequence (P29597 589-875 limits assumed): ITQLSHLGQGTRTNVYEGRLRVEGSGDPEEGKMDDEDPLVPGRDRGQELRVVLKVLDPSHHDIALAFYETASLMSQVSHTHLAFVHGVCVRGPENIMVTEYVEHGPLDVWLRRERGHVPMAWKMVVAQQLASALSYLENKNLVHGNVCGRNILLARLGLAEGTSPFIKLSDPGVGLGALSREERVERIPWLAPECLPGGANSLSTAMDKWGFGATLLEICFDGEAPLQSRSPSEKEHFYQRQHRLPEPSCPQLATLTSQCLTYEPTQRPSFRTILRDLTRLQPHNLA
T2 sequence (P23458 583-855 limits assumed): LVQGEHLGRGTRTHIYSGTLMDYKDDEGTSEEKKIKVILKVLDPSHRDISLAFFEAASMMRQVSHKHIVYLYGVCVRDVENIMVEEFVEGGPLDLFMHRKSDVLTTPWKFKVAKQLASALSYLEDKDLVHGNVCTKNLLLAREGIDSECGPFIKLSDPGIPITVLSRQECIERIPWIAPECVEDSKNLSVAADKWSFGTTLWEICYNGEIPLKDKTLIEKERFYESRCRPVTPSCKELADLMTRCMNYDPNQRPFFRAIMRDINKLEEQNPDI

Take `[2H]C([2H])([2H])NC(=O)c1nnc(NC(=O)C2CC2)cc1Nc1cccc(-c2ncn(C)n2)c1OC` [Deucravacitinib, reference compound]: the “brain penetration (in words)” value in data set [1] was “very low brain penetration”. Besides, the Kp at 0.5 h in data set [1] (PO 10 mg/kg, 0.5 hours after administration, read-out: brain/blood concentration ratio) was found to be 0.032.

With `CNc1cc2nc3c(cnn13)C(=O)OC(C)COCc1ccc(OC)c(c1)N2` [Example 2, (R,1^3E,1^4E)-3^6-methoxy-7-methyl-1^7-(methylamino)-5,8-dioxa-2-aza-1(5,3)-pyrazolo[1,5-a]pyrimidin-3(1,3)-benzheterocyclononan-9-one], at TYK2-JH2, the IC50 was < 5 nM. Moreover, on JAK1-JH2, the IC50 was > 5000 nM. The Vd in data set [2] (male, SD, rat, rat plasma, intravenous injection 2 mg/kg, read-out: Vss) was 1.28 L/kg. For the same compound, in data set [2] (male, SD, rat, rat plasma, intravenous injection 2 mg/kg, read-out: Vz), the Vd was 1.33 L/kg. In addition, in data set [2] (setting [3]), the AUC(0-inf) was 2030 ng·h/mL, the AUC(0-t) came out at 2020 ng·h/mL, the C0 was determined as 2260 ng/mL and the MRT is 1.28 h. In data set [2] (setting [3]), this compound gave a clearance of 16.7 mL/min/kg and a half-life of 0.93 h. In data set [2] (setting [4]), this compound had an AUC(0-inf) of 5780 ng·h/mL, an AUC(0-t) of 5770 ng·h/mL, a Cmax of 2460 ng/mL and an MRT of 1.97 h. Moreover, in data set [2] (setting [4]), the time of peak concentration (Tmax) was 0.5 h and the half-life is 2.46 h. This compound also came in with a Bioavialibility in data set [2] (rat, oral 10 mg/kg vs intravenous 2 mg/kg) of 57.1%. In data set [2] (rat, single oral gavage 10 mg/kg), the “oral drug exposure (in words)” value is “much better than that of the control compounds A and B”. Further, the “brain penetration (in words)” value in data set [1] was “remarkably high brain penetration”. The brain/blood concentration ratio in data set [1] (PO 10 mg/kg, 0.5 hours after administration) was determined as 508%. In data set [1] (brain, read-out: concentration in brain tissue), the concentration at 0.5 h turned out to be 2620 ng/mL. Further, the Kp at 0.5 h in data set [1] (10 mg/kg, 0.5 hours post oral dosing, printed as plain ratio, read-out: brain-blood concentration ratio) is 5.08. In data set [1] (plasma, read-out: concentration in plamsa), the concentration at 0.5 h worked out at 515 ng/mL.

With `CNc1cc2nn3c(cnc13)C(=O)OC[C@H](C)OCc1ccc(OC)c(c1)N2` [Example 3, (6S, E)-3^6-methoxy-6-methyl-1^8-(methylamino)-5,8-dioxa-2-azazo-1(6,3)-imidazo[1,2-b]pyridazine-3(1,3)-benzheterocyclononan-9-one], the IC50 at TYK2-JH2 is < 20 nM; at JAK1-JH2, > 5000 nM.

`CNc1cc2nc3c(cnn13)C(=O)O[C@@H]1CCC[C@H]1OCc1cc(c3nnn(C)c3c1)N2` [Example 6, (1^3E,1^4E,6^1R,6^2R)-3^1-methyl-1^7-(methylamino)-3^1H-5,7-dioxa-2-azazo-1(5,3)-pyrazolo[1,5-a]pyrimidine-3(4,6)-benzo[d][1,2,3]triazole-6(1,2)-cyclopentane cyclooctafuran-8-one]: the IC50 at TYK2-JH2 was < 10 nM. Also, in data set [1] (setting [5]), the Kp at 5 min turned out to be 0.322.

In data set [2] (setting [4]), `CNc1cc2nc3c(cnn13)C(=O)N[C@H](C)COCc1ccc(OC)c(c1)N2` [control compound B, reference compound] showed an AUC(0-inf) of 332 ng·h/mL, an AUC(0-t) of 327 ng·h/mL, a Cmax of 192 ng/mL and an MRT of 1.63 h. Moreover, in data set [2] (setting [4]), the Tmax came out at 0.5 h and the half-life is 1.08 h. For the same compound, the Kp at 5 min in data set [1] (setting [5]) was 0.228.

Regarding `CNc1cc2nn3c(cnc13)C(=O)N[C@@H]1CCC[C@H]1OCc1cc(c3nnn(C)c3c1)N2` [control compound A, reference compound], the IC50 against TYK2-JH2 was < 5 nM. For the same compound, on JAK1-JH2, the IC50 was > 1000 nM. In data set [2] (setting [4]), this compound showed an AUC(0-inf) of 735 ng·h/mL, an AUC(0-t) of 592 ng·h/mL, a Cmax of 126 ng/mL and an MRT of 3.16 h. In addition, in data set [2] (setting [4]), the Tmax worked out at 1.83 h and the half-life was 3.07 h. Besides, the “brain penetration (in words)” value in data set [1] is on record as “very low brain penetration”. The Kp at 5 min in data set [1] (setting [5]) was determined as 0.0879.

On to `CNc1cc2nn3c(cnc13)C(=O)O[C@@H]1CCC[C@@H]1OCc1cc(c3nnn(C)c3c1)N2` [Example 5, (6^1R,6^2R,E)-3^1-methyl-1^8-(methylamino)-3^1H-5,7-dioxa-2-azazo-1(6,3)-imidazo[1,2-b]pyridazine-3(4,6)-benzo[d][1,2,3]triazole-6(1,2)-cyclopentane cyclooctafuran-8-one], for which the concentration for half-maximal inhibition (IC50) against TYK2-JH2 was < 5 nM; against JAK1-JH2, > 5000 nM. In data set [1] (setting [5]), the Kp at 5 min was 1.21.

As to `CNc1cc2nn3c(cnc13)C(=O)O[C@H](C)COCc1ccc(OC)c(c1)N2` [Example 1, (7R,E)-3^6-methoxy-7-methyl-1^8-(methylamino)-5,8-dioxa-2-aza-1(6,3)-imidazo[1,2-b]pyridazin-3(1,3)-benzocyclononan-9-one], the IC50 on TYK2-JH2 was < 5 nM; at JAK1-JH2, > 5000 nM. The Kp at 5 min in data set [1] (setting [5]) came out at 3.15.

Turning to `CNc1cc2nn3c(cnc13)C(=O)O[C@H](C)COCc1cc(c(=O)n(C)c1)N2` [Example 7, (1^5E,3^3E,7R)-3^1,7-dimethyl-1^8-(methylamino)-3^1,3^2-dihydro-5,8-dioxa-2-azazo-1(6,3)-imidazo[1,2-b]pyridazine-3(3,5)-pyridine heterocyclononane-3^2,9-dione], the values for the IC50 at TYK2-JH2 and on JAK1-JH2 were < 5 nM and > 5000 nM, respectively.

In the case of `CNc1cc2nc3c(cnn13)C(=O)OCC(C)OCc1ccc(OC)c(c1)N2` [Example 4, (S, 1^3E,1^4E)-3^6-methoxy-6-methyl-1^7-(methylamino)-5,8-dioxa-2-azazo-1(5,3)-pyrazolo[1,5-a]pyrimidine-3(1,3)-benzheterocyclononan-9-one], the IC50 at TYK2-JH2 is < 20 nM; at JAK1-JH2, > 5000 nM.

On to `CNc1cc2nc3c(cnn13)C(=O)O[C@H](C)COCc1cc(c(=O)n(C)c1)N2` [Example 8, (R,1^3E,1^4E,3^3E)-3^1,7-dimethyl-1^7-(methylamino)-3^1,3^2-dihydro-5,8-dioxa-2-azazo-1(5, 3)-pyrazolo[1,5-a]pyrimidine-3 (3,5)-pyridine heterocyclononane-3^2,9-dione], for which the IC50 is < 5 nM at TYK2-JH2 and > 5000 nM against JAK1-JH2.
